What was measured:
[1] = Mouse Abdominal Constriction Assay (phenylquinone writhing); format: in vivo, male CF-1 mice; conditions: for % Analgesia: 1.5 h post-dose
Procedure: Compounds of the present invention are tested for analgesic activity using the mouse abdominal constriction assay. This assay is described in Hendershot and Forsaith, J. Pharmacol. Exo.
Male CF-1 mice (Charles River Breeding Laboratories, Inc.), weighing approximately 20 grams and food fasted overnight, are used in these assays. Test compounds are prepared for oral (p.o.) or subcutaneous (s.c.) administration, with compounds of the present invention being prepared in acidified (1N acetic acid) distilled deionized water so that the appropriate dose is given in 0.2 mls to a 20 gram mouse.
Ten minutes after the i.p. injection of phenylquinone, the number of full body writhes are counted for the succeeding ten minutes. Percent analgesia in this assay is calculated as follows: [formula]

[2] = Oral syrup in human (Example IX); format: in vivo; conditions: one teaspoon of syrup, 70 kg adult human
Procedure: (§1) A composition for oral administration is prepared by combining the following ingredients:
The above ingredients are combined to produce a syrup and are packaged under sterile conditions in 6 oz. bottles.

Rodent Hot Plate Test = format: in vivo, male Sprague-Dawley rats
Procedure: The degree of thermal analgesia obtained is determined using the "rodent hot plate test" (RHP). The RHP system is designed to detect and evaluate agents which elevate the threshold for the perception of pain. Classically, this method has been utilized primarily to evaluate opioid (narcotic) analgesic agents, such as morphine.
Male Sprague-Dawley rats (Charles River Breeding Laboratories Inc.) weighing between 100 and 125 grams upon arrival are used to evaluate the compounds of the present invention. Animals are double housed in stainless steel cages, and are fed Purina Rat Chow and tap water ad libitum. The animals are food fasted the afternoon proceeding the day of the study, and food is returned 5 hours post-treatment. Animals not being dosed by oral gavage are not fasted.
The apparatus for evaluating analgesic activity consists of an insulated copper hot plate whose surface is maintained at 55°±0.5° C. by a circulating water bath. A bottomless glass container (12" (30 cm) tall by 8" (20 cm) diameter) is used to restrict the animal to a defined area of the hot plate. After dosing, the animal is placed through the top opening of the container, and a stop watch is started when the animal makes contact with the plate. The stop-watch is stopped upon either of the following visually observed end points: (1) licking or biting of either hind paw, or (2) jumping. If the jump is not successful but both hind paws leave the surface of the plate in an effort to jump, this is considered jumping. The stop-watch is stopped at the end point and the animal is immediately removed from the hot plate. The time (latency) between the initial contact of the animal on the hot plate and the endpoint is recorded.
Prior to dosing, animals are tested on the hot plate. This is denoted as pretest or base line latency. Usually, the animals are dosed by oral gavage, using a 1 cubic cm glass syringe connected to a size 8 french catheter. The dose volume is 5 ml/kg. On occasion, the animals are dosed by either subcutaneous administration or intravenous injection. Using the subcutaneous administration, a 1 ml tuberculin syringe is connected to a 25 gauge 5/8 inch needle, and injected under the skin in the neck or back region. For intravenous dosing, a 1 ml tuberculin syringe is connected to a 25 gauge 3/4 inch winged infusion set, and injected into the tail vein. The dose volume for subcutaneous and intravenous routes is 1 ml/kg. The latency times are typically recorded at 1.5, 3, 5, and 24 hours post-treatment. Much shorter times are recorded for an intravenous administration.

[3] = Carrageenan Rat Paw Edema Test; format: in vivo, male Sprague Dawley rats; conditions: oral (stomach tube), 1 h before carrageenan, paw volume 4 h after carrageenan
Procedure: Compounds of the present invention are tested for anti-inflammatory activity using the Carrageenan Rat Paw Edema Test.
Male Sprague Dawley rats (Charles River Breeding Laboratories Inc.) are weighed and food fasted overnight. The animals are divided into four to six groups of six animals each according to body weights, average about 145 g, so that each group has about the same average weight (within 10 g).
The following morning five ml of water is dosed orally via stomach tube to each animal to facilitate paw swelling. Thirty minutes later the animals are dosed with the test compound and then placed in individual cages. The compound of the present invention is dissolved in distilled deionized water with 1 equivalent of 1N acetic acid and delivered via stomach tube in 1 ml volume.
One hour after dosing the test compound, the animals are placed in a plastic restrainer and 50 ul of a 1% (w/w) carrageenan solution in 0.9% saline is injected into the ventral surface of the left rear paw. Paw volumes (0 time) are determined on both hind paws with a mercury displacement device equipped with a transducer and digitizer following the carrageenan injection. Four hours after the carrageenan injection, the paw volumes are again determined.
The results are expressed as percent inhibition of the mean paw volume of the test group relative to the control group according to the formula:
(C-T a..n)/C×100=Percent Inhibition
where C is the average difference in paw volume before and after carrageenan-induced swelling, and
Ta..n is the difference in paw swelling in the treated animals (a..n). Statistical differences are determined by one way analysis of variance.

[4] = Oral soft gelatin capsules in human (Example VIII); format: in vivo; conditions: two oral capsules, 225 mg of composition each, 60 kg human
Procedure: as §1
The octadecenamide is dissolved in the sesame oil with the aid of sonication and is packaged in soft gelatin capsules using methods known in the art.

[5] = unless administered in toxic quantities; antipyretic analgesics; cited from earlier work

Structure (SMILES): CCCCCCCC/C=C\CCCCCCCC(=O)NCc1ccc(OCCN)c(OC)c1 [N-((4-(2-aminoethoxy)-3-methoxyphenyl)-methyl)-9Z-octadecenamide]
- % Analgesia ([1]; 1 mg/kg subcutaneous): 22.3%
- % Analgesia ([1]; 2 mg/kg subcutaneous): -13.7%
- % Analgesia ([1]; 4 mg/kg subcutaneous): 34.3%
- % Analgesia ([1]; 8 mg/kg subcutaneous): 57.8%
- % Analgesia ([1]; 10 mg/kg oral): 55.8%
- % Analgesia ([1]; 10 mg/kg subcutaneous): 91.4%
- % Analgesia ([1]; 25 mg/kg oral): 71.7%
- % Analgesia ([1]; 75 mg/kg oral): 88.3%
- % Analgesia ([1]; 100 mg/kg subcutaneous): 99.0%
- % Analgesia ([1]; 150 mg/kg oral): 95.5%
- % Analgesia ([1]; 300 mg/kg oral): 93.2%
- analgesic potency compared with N-vanillyloleamide ([1]; oral, at a substantially lower dose): substantially greater analgesic potency at a substantially lower dose
- analgesia [2]: substantially similar reduction of inflammation and analgesic effect
- reduction of inflammation [2]: substantially similar reduction of inflammation
- Mean Latency Times (Rodent Hot Plate Test; 75 mg/kg oral, 1.5 hr post dose): 21.8 s
- Mean Latency Times (Rodent Hot Plate Test; 75 mg/kg oral, 3 hr post dose): 18.9 s
- Mean Latency Times (Rodent Hot Plate Test; 75 mg/kg oral, 5 hr post dose): 18.7 s
- Mean Latency Times (Rodent Hot Plate Test; 75 mg/kg oral, 24 hr post dose): 11.2 s
- Mean Latency Times (Rodent Hot Plate Test; 150 mg/kg oral, 1.5 hr post dose): 30.6 s
- Mean Latency Times (Rodent Hot Plate Test; 150 mg/kg oral, 3 hr post dose): 18.9 s
- Mean Latency Times (Rodent Hot Plate Test; 150 mg/kg oral, 5 hr post dose): 15.0 s
- Mean Latency Times (Rodent Hot Plate Test; 150 mg/kg oral, 24 hr post dose): 11.5 s
- Mean Latency Times (Rodent Hot Plate Test; 300 mg/kg oral, 1.5 hr post dose): 30.7 s
- Mean Latency Times (Rodent Hot Plate Test; 300 mg/kg oral, 3 hr post dose): 22.6 s
- Mean Latency Times (Rodent Hot Plate Test; 300 mg/kg oral, 5 hr post dose): 21.0 s
- Mean Latency Times (Rodent Hot Plate Test; 300 mg/kg oral, 24 hr post dose): 16.5 s
- potency and efficacy relative to codeine (Rodent Hot Plate Test; oral): at least as potent and efficacious as the known opiate codeine
- % Inhibition (of paw volume/swelling vs control) ([3]; 25 mg/kg): 53.5%
- % Inhibition (of paw volume/swelling vs control) ([3]; 50 mg/kg): 73.7%
- % Inhibition (of paw volume/swelling vs control) ([3]; 100 mg/kg): 64.9%
- % Inhibition (of paw volume/swelling vs control) ([3]; 200 mg/kg): 61.4%
- analgesia [4]: producing analogesia
- reduction of inflammation [4]: reducing inflammation

Structure (SMILES): CC(=O)Nc1ccc(O)cc1 [acetaminophen]
- activity in the RHP system [5]: little or no activity

Structure (SMILES): CC(=O)Oc1ccccc1C(=O)O [aspirin]
- activity in the RHP system [5]: little or no activity
